Test results taken from ChEMBL document CHEMBL4152249, “Alkoxyphenylthiazoles with broad-spectrum activity against multidrug-resistant gram-positive bacterial pathogens” (Eur J Med Chem, 2018).
≈ marks a conversion by molar mass, not a printed value. Calls of active or inactive are those of the source. The calls are words filed in the database; no cut-off is given here.

Tests used:
Staphylococcus aureus [1] = assay: Antibacterial activity against methicillin-resistant Staphylococcus aureus 2658 RCMB after 20 hrs by broth microdilution assay; format: functional
Enterococcus faecalis [2] = assay: Antibacterial activity against vancomycin-resistant Enterococcus faecalis ATCC 51299 after 20 hrs by broth microdilution assay; format: functional; conditions: ATCC 51299, 20 h
[3] = tested on: Staphylococcus epidermidis; assay: Bactericidal activity against methicillin-resistant Staphylococcus epidermidis NRS101 incubated for 20 hrs followed by re-plating on tryptic soy agar plates at 37 degC for 18 hrs by broth microdilution assay; format: functional
Staphylococcus aureus [4] = assay: Antibacterial activity against vancomycin-resistant Staphylococcus aureus VRSA12 after 20 hrs by broth microdilution assay; format: functional; conditions: VRSA12, 20 h
[5] = Selectivity index, ratio of compound effect for human Caco2 cells at maximum non-toxic concentration concentration to MIC for vancomycin-resistant Enterococcus faecalis ATCC 51299; format: toxicity; conditions: Caco-2 cells, read-out: Selectivity Index
Staphylococcus aureus [6] = assay: Antibacterial activity against methicillin-resistant Staphylococcus aureus USA400 NRS123 after 14 passages over 2 weeks by broth microdilution method; format: functional, organism-based
Listeria monocytogenes [7] = assay: Bactericidal activity against Listeria monocytogenes ATCC 19111 incubated for 20 hrs followed by re-plating on tryptic soy agar plates at 37 degC for 18 hrs by broth microdilution assay; format: functional
[8] = tested on: Staphylococcus epidermidis; assay: Antibacterial activity against methicillin-resistant Staphylococcus epidermidis NRS101 after 20 hrs by broth microdilution assay; format: functional; conditions: NRS101, 20 h
Staphylococcus aureus [9] = assay: Bactericidal activity against Staphylococcus aureus USA400 assessed as reduction in colony forming unit at 3 to 6 times MIC treated for 2 hrs followed by re-plating on tryptic soy agar plates at 37 degC for 18 to 20 hrs by broth microdilution assay; format: functional; set-up: scale not given: the % may be the effect or the level left
Staphylococcus aureus [10] = assay: Antibacterial activity against methicillin-resistant Staphylococcus aureus after 20 hrs by broth microdilution assay; format: functional
[11] = Selectivity index, ratio of compound effect for human Caco2 cells at maximum non-toxic concentration concentration to MIC for methicillin-resistant Staphylococcus epidermidis NRS101; format: toxicity; conditions: Caco-2 cells, read-out: Selectivity Index
Listeria monocytogenes [12] = assay: Antibacterial activity against Listeria monocytogenes ATCC 19111 after 20 hrs by broth microdilution assay; format: functional; conditions: ATCC 19111, 20 h
Streptococcus pneumoniae [13] = assay: Antibacterial activity against cephalosporin-resistant Streptococcus pneumoniae ATCC 51916 after 20 hrs by broth microdilution assay; format: functional; conditions: ATCC 51916, 20 h
Streptococcus pneumoniae [14] = assay: Ratio of MBC to MIC for methicillin-resistant Streptococcus pneumoniae ATCC 700677; format: functional
[15] = Selectivity index, ratio of compound effect for human Caco2 cells at maximum non-toxic concentration concentration to MIC for Listeria monocytogenes ATCC 19111; format: toxicity; conditions: Caco-2 cells, read-out: Selectivity Index
[16] = Selectivity index, ratio of compound effect for human Caco2 cells at maximum non-toxic concentration concentration to MIC for methicillin-resistant Streptococcus pneumoniae ATCC 700677; format: toxicity; conditions: Caco-2 cells, read-out: Selectivity Index
[17] = Clearance in Sprague-Dawley rat at 5 uM, iv administered as single bolus dose by LC-MS/MS analysis; format: ADME, organism-based; conditions: in vivo
Staphylococcus aureus [18] = assay: Bactericidal activity against vancomycin-resistant Staphylococcus aureus VRSA12 incubated for 20 hrs followed by re-plating on tryptic soy agar plates at 37 degC for 18 hrs by broth microdilution assay; format: functional
Enterococcus faecium [19] = assay: Bactericidal activity against vancomycin-resistant Enterococcus faecium ATCC 700221 incubated for 20 hrs followed by re-plating on tryptic soy agar plates at 37 degC for 18 hrs by broth microdilution assay; format: functional
Staphylococcus aureus [20] = assay: Bactericidal activity against methicillin-resistant Staphylococcus aureus NRS385 incubated for 20 hrs followed by re-plating on tryptic soy agar plates at 37 degC for 18 hrs by broth microdilution assay; format: functional
[21] = Half life in Sprague-Dawley rat at 5 uM, iv administered as single bolus dose by LC-MS/MS analysis; format: ADME, organism-based; conditions: in vivo
[22] = Selectivity index, ratio of compound effect for human Caco2 cells at maximum non-toxic concentration concentration to MIC for cephalosporin-resistant Streptococcus pneumoniae ATCC 51916; format: toxicity; conditions: Caco-2 cells, read-out: Selectivity Index
Enterococcus faecium [23] = assay: Antibacterial activity against vancomycin-resistant Enterococcus faecium ATCC 700221 after 20 hrs by broth microdilution assay; format: functional; conditions: ATCC 700221, 20 h
Streptococcus pneumoniae [24] = assay: Bactericidal activity against cephalosporin-resistant Streptococcus pneumoniae ATCC 51916 incubated for 20 hrs followed by re-plating on tryptic soy agar plates at 37 degC for 18 hrs by broth microdilution assay; format: functional
[25] = Selectivity index, ratio of compound effect for human Caco2 cells at maximum non-toxic concentration concentration to MIC for vancomycin-resistant Enterococcus faecium ATCC 700221; format: toxicity; conditions: Caco-2 cells, read-out: Selectivity Index
[26] = Volume of distribution at steady state in Sprague-Dawley rat at 5 uM, iv administered as single bolus dose by LC-MS/MS analysis; format: ADME, organism-based; conditions: in vivo, read-out: Vdss
Staphylococcus aureus [27] = assay: Bactericidal activity against linezolid-resistant Staphylococcus aureus NRS119 incubated for 20 hrs followed by re-plating on tryptic soy agar plates at 37 degC for 18 hrs by broth microdilution assay; format: functional
Staphylococcus aureus [28] = assay: Bactericidal activity against methicillin-resistant Staphylococcus aureus NRS386 incubated for 20 hrs followed by re-plating on tryptic soy agar plates at 37 degC for 18 hrs by broth microdilution assay; format: functional
Staphylococcus aureus [29] = assay: Antibacterial activity against methicillin-resistant Staphylococcus aureus NRS386 after 20 hrs by broth microdilution assay; format: functional; conditions: NRS386, 20 h
Staphylococcus aureus [30] = assay: Antibacterial activity against Staphylococcus aureus after 20 hrs by broth microdilution assay; format: functional
Streptococcus pneumoniae [31] = assay: Antibacterial activity against methicillin-resistant Streptococcus pneumoniae ATCC 700677 after 20 hrs by broth microdilution assay; format: functional; conditions: ATCC 700677, 20 h
Staphylococcus aureus [32] = assay: Bactericidal activity against methicillin-sensitive Staphylococcus aureus NRS107 incubated for 20 hrs followed by re-plating on tryptic soy agar plates at 37 degC for 18 hrs by broth microdilution assay; format: functional
Streptococcus pneumoniae [33] = assay: Bactericidal activity against methicillin-resistant Streptococcus pneumoniae ATCC 700677 incubated for 20 hrs followed by re-plating on tryptic soy agar plates at 37 degC for 18 hrs by broth microdilution assay; format: functional
Staphylococcus aureus [34] = assay: Antibacterial activity against vancomycin-resistant Staphylococcus aureus VRSA10 after 20 hrs by broth microdilution assay; format: functional; conditions: VRSA10, 20 h
[35] = Terminal phase volume of distribution at […] in Sprague-Dawley rat at 5 uM, iv administered as single bolus dose by LC-MS/MS analysis; format: ADME, organism-based; conditions: in vivo, read-out: Vbeta
[36] = AUC in Sprague-Dawley rat at 5 uM, iv administered as single bolus dose by LC-MS/MS analysis; format: ADME, organism-based; conditions: in vivo
Staphylococcus aureus [37] = assay: Bactericidal activity against Staphylococcus aureus USA300 NRS384 incubated for 20 hrs followed by re-plating on tryptic soy agar plates at 37 degC for 18 hrs by broth microdilution assay; format: functional
Staphylococcus aureus [38] = assay: Bactericidal activity against vancomycin-resistant Staphylococcus aureus VRSA10 incubated for 20 hrs followed by re-plating on tryptic soy agar plates at 37 degC for 18 hrs by broth microdilution assay; format: functional
Staphylococcus aureus [39] = assay: Antibacterial activity against methicillin-resistant Staphylococcus aureus NRS385 after 20 hrs by broth microdilution assay; format: functional; conditions: NRS385, 20 h
Caco-2 = assay: Cytotoxicity against human Caco2 cells assessed as effect on cell viability up to 64 ug/ml after 2 hrs by MTS assay; format: cell-based; conditions: caco-2, 2 h
Enterococcus faecalis [40] = assay: Bactericidal activity against vancomycin-resistant Enterococcus faecalis ATCC 51299 incubated for 20 hrs followed by re-plating on tryptic soy agar plates at 37 degC for 18 hrs by broth microdilution assay; format: functional
Staphylococcus aureus [41] = assay: Bactericidal activity against Staphylococcus aureus USA400 NRS123 incubated for 20 hrs followed by re-plating on tryptic soy agar plates at 37 degC for 18 hrs by broth microdilution assay; format: functional
Staphylococcus aureus [42] = assay: Antibacterial activity against methicillin-resistant Staphylococcus aureus USA400 NRS123 after 1 passages over 2 weeks by broth microdilution method; format: functional, organism-based

CCCCCCCCOc1ccc(-c2nc(C)c(-c3ccnc(N4CC(O)C4)n3)s2)cc1
MIC (Staphylococcus aureus [1]): 6.25 µg/mL (≈ 13.8 µM)

CCCCCCCOc1ccc(-c2nc(C)c(-c3ccnc(NC(=N)N)n3)s2)cc1
MIC (Staphylococcus aureus [1]): 1.56 µg/mL (≈ 3.67 µM)

CCCCCCCOc1ccc(-c2nc(C)c(-c3ccnc(NC(=N)N(C)C)n3)s2)cc1
MIC (Enterococcus faecalis [2]): 8 µg/mL (≈ 17.7 µM) | MBC [3]: 4 µg/mL (≈ 8.84 µM) | MIC (Staphylococcus aureus [4]): 4 µg/mL (≈ 8.84 µM) | selectivity ratio [5]: 7 to 82 | Activity (Staphylococcus aureus [6]): Active | MBC (Listeria monocytogenes [7]): 4 µg/mL (≈ 8.84 µM) | MIC [8]: 4 µg/mL (≈ 8.84 µM) | Activity (Staphylococcus aureus [9]): 100% | MIC (Staphylococcus aureus [10]): 4 to 8 µg/mL (≈ 8.84 to 17.7 µM) | selectivity ratio [11]: 7 to 82 | MIC (Listeria monocytogenes [12]): 4 µg/mL (≈ 8.84 µM) | MIC (Streptococcus pneumoniae [13]): 8 µg/mL (≈ 17.7 µM) | Ratio (Streptococcus pneumoniae [14]): 1 | selectivity ratio [15]: 7 to 82 | selectivity ratio [16]: 7 to 82 | clearance at 5 µM [17]: 29.2 mL/min | MBC (Staphylococcus aureus [18]): 4 µg/mL (≈ 8.84 µM) | MBC (Enterococcus faecium [19]): 8 µg/mL (≈ 17.7 µM) | MBC (Staphylococcus aureus [20]): 8 µg/mL (≈ 17.7 µM) | half-life at 5 µM [21]: 4 h | selectivity ratio [22]: 7 to 82 | MIC (Enterococcus faecium [23]): 8 µg/mL (≈ 17.7 µM) | MIC (Staphylococcus aureus [1]): 1.56 µg/mL (≈ 3.45 µM) | MBC (Streptococcus pneumoniae [24]): 8 µg/mL (≈ 17.7 µM) | selectivity ratio [25]: 7 to 82 | Vd at 5 µM [26]: 4.36 L | MBC (Staphylococcus aureus [27]): 8 µg/mL (≈ 17.7 µM) | MBC (Staphylococcus aureus [28]): 4 µg/mL (≈ 8.84 µM) | MIC (Staphylococcus aureus [29]): 4 µg/mL (≈ 8.84 µM) | MIC (Staphylococcus aureus [30]): 4 µg/mL (≈ 8.84 µM) | MIC (Streptococcus pneumoniae [31]): 4 µg/mL (≈ 8.84 µM) | MBC (Staphylococcus aureus [32]): 4 µg/mL (≈ 8.84 µM) | MBC (Streptococcus pneumoniae [33]): 8 µg/mL (≈ 17.7 µM) | MIC (Staphylococcus aureus [34]): 4 µg/mL (≈ 8.84 µM) | Vd at 5 µM [35]: 10.4 L | AUC at 5 µM [36]: 1140 ng·h/mL | MBC (Staphylococcus aureus [37]): 4 µg/mL (≈ 8.84 µM) | MBC (Staphylococcus aureus [38]): 4 µg/mL (≈ 8.84 µM) | MIC (Staphylococcus aureus [39]): 8 µg/mL (≈ 17.7 µM) | Activity (Caco-2): Non-Toxic | MBC (Enterococcus faecalis [40]): 8 µg/mL (≈ 17.7 µM) | MBC (Staphylococcus aureus [41]): 8 µg/mL (≈ 17.7 µM)

CO[C@H]1/C=C/O[C@@]2(C)Oc3c(C)c(O)c4c(O)c(c(/C=N/N5CCN(C)CC5)c(O)c4c3C2=O)NC(=O)/C(C)=C\C=C\[C@H](C)[C@H](O)[C@@H](C)[C@@H](O)[C@@H](C)[C@H](OC(C)=O)[C@@H]1C
Activity (Staphylococcus aureus [42]): inactive

CCCCCCCOc1ccc(-c2nc(C)c(-c3ccnc(NC)n3)s2)cc1
MIC (Staphylococcus aureus [1]): > 50 µg/mL
